Data from patent US4443460A, “2-[4-(Diphenylmethylene)-1-piperidinyl]-acetic acids and their amides” (UCB, Societe Anonyme, priority 1980, dated 1984).
Where a name gives a salt, the structure may show the parent alone.

Columns and labels:
[1] = tested on: passive cutaneous anaphylaxis; test: passive cutaneous anaphylaxis test (PCA), antiallergic activity; type: in vivo; settings: rats; for ED50: Rattus norvegicus, 0.25 h, read-out: ID 50 per os (reduction of 50% of the surface area of the colored spot)
Description: This activity is determined in rats by means of the passive cutaneous anaphylaxis test (PCA) (see J. Goose and A. M. J. N. Blair, Immunology,16,(1969),749-760; and U. Martin and D. Roemer, Arzneimittel-Forschung,28,(5), (1978),770-782).
Female rats are used, the sides of which have been partly shaved. Into the zone thus shaved there is injected intradermally, for passive sensitization of the animals, 0.05 ml of IGE antiovalbumin serum at a dilution such that, at the time of the PCA test, a distinct spot with a surface area of about 100 mm^2 appears at the point of injection.
72 Hours after the injection, 0.25 ml of a solution of allergen containing a coloring agent (5 mg of ovalbumin and 6 mg Evans Blue in 0.25 ml of a 0.9% aqueous solution of sodium chloride) is administered intravenously. At the point of intradermal injection, there appears a distinct blue spot, the surface of which is measured.
In order to test the activity of the compound according to the present invention, the procedure is carried out in the same manner; however:
the test compound is administered orally 72 hours after injection of the serum;
15 minutes after this administration, 0.25 ml of the solution of the allergen is injected intravenously;
30 minutes after the administration of the allergen, the surface of the blue spot is measured.
The following Table gives the immunological doses (ID 50 in μmol/kg) which bring about, on average of the total number of animals submitted to the test, a reduction of 50% of the surface area of the colored spot.

mice [2] = settings: mouse, in vivo, ip
Description: (§1) Progressive doses of the test compounds are administered intraperitoneally to groups of three male mice (body weight 18 to 22 g) and the general behaviour of the animals is observed according to known criteria. The reference compounds used are the following:
Furthermore, in this test, the toxicity of the compounds according to the present invention appears to be very low. This toxicity, determined by intraperitoneal administration in mice (dose which brings about the death of two animals out of three), is given in the following Table: […]

mice [3] = test: General behaviour of mice (Irwin's test), tranquilization; type: in vivo; settings: male mice, intraperitoneal
Description: The behaviour is studied by means of Irwin's test (see S. Irwin, "General philosophy and methodology of screening: a multidimensional approach"; Gordon Research Conference on Medicinal Chemistry, Aug. 3-7, 1959, at Colby Junior College, New London).
as §1
The following Table gives the doses (in mg/kg) which induce the first manifestations of tranquilization in the animals: […]

[4] = tested on: bronchospasms induced by histamine; test: Konzett-Roessler bronchospasm test, histamine-induced (antihistaminic activity); type: in vivo; settings: guinea pigs, i.v.; for ED50: Cavia porcellus, iv, histamine-induced, read-out: dose which inhibits 50% of the induced bronchospasms, Histamine
Description: (§2) These activities were measured in guinea pigs by the method of H. Konzett and R. […] Anaesthetized and curarized guinea pigs are subjected to artificial ventilation. The endotracheal pressure is recorded. Repeated bronchial spasms are induced by successive and progressive intravenous injections of respectively acetylcholine, histamine and serotonin. The test compounds are also administered intravenously.

[5] = tested on: bronchospasms induced by acetylcholine; test: Konzett-Roessler bronchospasm test, acetylcholine-induced; type: in vivo; settings: Cavia porcellus, iv, guinea pigs, i.v., read-out: dose which inhibits 50% of the induced bronchospasms, Acetylcholine
Description: as §2

[6] = tested on: bronchospasms induced by serotonin; test: Konzett-Roessler bronchospasm test, serotonin-induced; type: in vivo; settings: Cavia porcellus, iv, guinea pigs, i.v., read-out: dose which inhibits 50% of the induced bronchospasms, Serotonin
Description: as §2

[7] = tested on: respiratory spasm induced by pilocarpine; test: pilocarpine dog test, broncholytic activity; type: in vivo; settings: dogs, i.v.
Description: Anaesthetized and curarized dogs are subjected to artificial ventilation. The endotracheal pressure is recorded. A constant respiratory spasm is induced by the continuous intravenous perfusion of pilocarpine. The test substances are also administered intravenously.

[8] = Oral toxicity LD50 in mice; settings: mouse, in vivo
Description: (§3) The compounds according to the present invention have a very low toxicity. The toxicity LD50 (in mg/kg) is determined by oral administration to rats and mice. Thus, in the case of compound A, this toxicity is 1903 mg/kg in rats and 959 mg/kg in mice.

[9] = Oral toxicity LD50 in rats; settings: rat, in vivo
Description: as §3

[10] = oral, allergen i.v. 15 minutes after administration

Compound	Toxicity (dose which brings about the death of two animals out of three) (mice [2]) [mg/kg]	ED50 [1, 10] [µmol/kg]	"Tranquilizing" dose (first manifestations of tranquilization) (mice [3])	ED50 [4] [mg/kg]	ED50 [5] [mg/kg]	ED50 [6] [mg/kg]	other results
O=C(O)c1cc(=O)c2c(OCC(O)COc3cccc4oc(C(=O)O)cc(=O)c34)cccc2o1 [sodium cromoglycate, reference compound]							ID 50 per os (reduction of 50% of the surface area of the colored spot) [1, 10]: inactive; activity when administered per os (in words) ([1]; per os): inactive
Cl.NC(=O)COCCN1CCC(=C(c2ccccc2)c2ccc(Cl)cc2)CC1 [compound D, 2-[2-[4-[(4-chlorophenyl)phenylmethylene]-1-piperidinyl]ethoxy]-acetamide hydrochloride]	126	67.4					
COc1ccc(C(=C2CCN(CCOCC(=O)O)CC2)c2ccccc2)cc1.Cl [compound M, 2-[2-[4-[(4-methoxyphenyl)phenylmethylene]-1-piperidinyl]ethoxy]-acetic acid hydrochloride]	418	208	125 mg/kg	0.181	> 41.8	0.893	
NC(=O)COCCOCCN1CCC(=C(c2ccccc2)c2ccc(Cl)cc2)CC1 [compound E, 2-[2-[2-[4-[(4-chlorophenyl)phenylmethylene]-1-piperidinyl]ethoxy]ethoxy]-acetamide]	128	34		0.348	> 4.29	0.085	
O=C(O)COCCN1CCC(=C(c2ccccc2)c2ccc(F)cc2)CC1 [compound L, 2-[2-[4-[(4-fluorophenyl)phenylmethylene]-1-piperidinyl]ethoxy]-acetic acid]	369	34	110 mg/kg	0.058	> 11.8	0.198	
COc1ccc(C(=C2CCN(CCOCC(N)=O)CC2)c2ccccc2)cc1.Cl [compound H, 2-[2-[4-[(4-methoxyphenyl)phenylmethylene]-1-piperidinyl]ethoxy]-acetamide hydrochloride]	416	31.4		0.026	> 41.6	0.18	
Cl.O=C(O)COCCOCCN1CCC(=C(c2ccccc2)c2ccc(Cl)cc2)CC1 [compound J, 2-[2-[2-[4-[(4-chlorophenyl)phenylmethylene]-1-piperidinyl]ethoxy]ethoxy]-acetic acid hydrochloride]	140	100	47 mg/kg	0.283	> 46.6	0.796	
OCCOCCN1CCN(C(c2ccccc2)c2ccc(Cl)cc2)CC1 (stereo not drawn) [Hydroxyzine, 1-(p-chloro-alpha-phenylbenzyl)-4-(2-hydroxyethoxyethyl)piperazine, reference compound]			27 mg/kg				
Cl.NC(=O)COCCOCCN1CCC(=C(c2ccccc2)c2ccccc2)CC1 [compound C, 2-[2-[2-[4-(diphenylmethylene)-1-piperidinyl]ethoxy]ethoxy]-acetamide hydrochloride]	258	76		0.031	0.47	0.009	
Cn1c(=O)c2[nH]cnc2n(C)c1=O [theophylline, reference compound]							reduction of the intensity of the induced spasm ([7]; 3200 μg/kg): 35%
Cl.O=C(O)COCCN1CCC(=C(c2ccccc2)c2ccc(Cl)cc2)CC1 [compound I, 2-[2-[4-[(4-chlorophenyl)phenylmethylene]-1-piperidinyl]ethoxy]-acetic acid hydrochloride]	844	100	76 mg/kg	0.413	13.5	1.18	
Cl.O=C(COCCOCCN1CCC(=C(c2ccccc2)c2ccccc2)CC1)Nc1ccccc1 [compound N, 2-[2-[2-[4-(diphenylmethylene)-1-piperidinyl]ethoxy]ethoxy]-N-phenylacetamide hydrochloride]		15.2		0.192	1.35	0.086	
Cl.O=C(O)COCCN1CCC(=C(c2ccccc2)c2ccccc2)CC1 [compound B, 2-[2-[4-(diphenylmethylene)-1-piperidinyl]ethoxy]-acetic acid hydrochloride]	233	39	105 mg/kg	0.037	> 82.5	0.206	
NC(=O)COCCN1CCC(=C(c2ccccc2)c2ccccc2Cl)CC1 [compound F, 2-[2-[4-[(2-chlorophenyl)phenylmethylene-1-piperidinyl]ethoxy]-acetamide hydrochloride]	421	66	no sedative effect at all	0.551	> 1.35	0.055	
O=C1Nc2ccc(Cl)cc2C(c2ccccc2)=NC1O (stereo not shown) [Oxazepam, 7-chloro-1,3-dihydro-3-hydroxy-5-phenyl-2H-1,4-benzodiazepin-2-one, reference compound]			2.6 mg/kg				
Cl.O=C(O)COCCOCCN1CCC(=C(c2ccccc2)c2ccccc2)CC1 [compound A, 2-[2-[2-[4-(diphenylmethylene)-1-piperidinyl]ethoxy]ethoxy]-acetic acid hydrochloride]	432	133	130 mg/kg	2.65	4.13	2.56	reduction of the intensity of the induced spasm ([7]; 320 μg/kg): 50%; broncholytic activity compared with theophylline (in words) ([7]; vs theophylline): clearly superior to that of theophylline; antihistaminic activity 4 hours after injection ([4]; 1 mg/kg, 4 hours): retains this activity; antihistaminic activity after 90 minutes ([4]; 1 mg/kg, after 90 minutes): 100%; LD50 [8]: 959 mg/kg; LD50 [9]: 1900 mg/kg
Cl.O=C(O)COCCN1CCC(=C(c2ccccc2)c2ccccc2Cl)CC1 [compound K, 2-[2-[4-[(2-chlorophenyl)phenylmethylene]-1-piperidinyl]ethoxy]-acetic acid hydrochloride]	422	100	126 mg/kg	0.104	39.5	0.43	
NC(=O)COCCN1CCC(=C(c2ccccc2)c2ccc(F)cc2)CC1 [compound G, 2-[2-[4-[(4-fluorophenyl)phenylmethylene]-1-piperidinyl]ethoxy]-acetamide]	368	5.5		0.093	> 11.8	0.023	
